Assay results reported in PMC11996864, “A small-molecule inhibitor of BCL10-MALT1 interaction abrogates progression of diffuse large B cell lymphoma” (The Journal of Clinical Investigation, 2025).
“And” between values parts separate entries of the source, which are not always exact repeats. Identical values can stand only once.

Assays:
BCL10-MALT1 interaction = molecular target: T1, BCL10-MALT1 interaction (Homo sapiens, UniProt Q9UDY8); experiment: ELISA-based BCL10-MALT1 protein-protein interaction assay; conditions: MALT1 preincubated 1 hour with compound; read-out: IC50, inhibition of MALT1 binding to immobilized BCL10
T1 construct: GST-tagged recombinant human full-length MALT1 protein in solution; purchased Novus Biologicals H00010892-P01 (MALT1); NBP1-99064 (BCL10)
T1 sequence (Q9UDY8 1-813 isoform Q9UDY8-2): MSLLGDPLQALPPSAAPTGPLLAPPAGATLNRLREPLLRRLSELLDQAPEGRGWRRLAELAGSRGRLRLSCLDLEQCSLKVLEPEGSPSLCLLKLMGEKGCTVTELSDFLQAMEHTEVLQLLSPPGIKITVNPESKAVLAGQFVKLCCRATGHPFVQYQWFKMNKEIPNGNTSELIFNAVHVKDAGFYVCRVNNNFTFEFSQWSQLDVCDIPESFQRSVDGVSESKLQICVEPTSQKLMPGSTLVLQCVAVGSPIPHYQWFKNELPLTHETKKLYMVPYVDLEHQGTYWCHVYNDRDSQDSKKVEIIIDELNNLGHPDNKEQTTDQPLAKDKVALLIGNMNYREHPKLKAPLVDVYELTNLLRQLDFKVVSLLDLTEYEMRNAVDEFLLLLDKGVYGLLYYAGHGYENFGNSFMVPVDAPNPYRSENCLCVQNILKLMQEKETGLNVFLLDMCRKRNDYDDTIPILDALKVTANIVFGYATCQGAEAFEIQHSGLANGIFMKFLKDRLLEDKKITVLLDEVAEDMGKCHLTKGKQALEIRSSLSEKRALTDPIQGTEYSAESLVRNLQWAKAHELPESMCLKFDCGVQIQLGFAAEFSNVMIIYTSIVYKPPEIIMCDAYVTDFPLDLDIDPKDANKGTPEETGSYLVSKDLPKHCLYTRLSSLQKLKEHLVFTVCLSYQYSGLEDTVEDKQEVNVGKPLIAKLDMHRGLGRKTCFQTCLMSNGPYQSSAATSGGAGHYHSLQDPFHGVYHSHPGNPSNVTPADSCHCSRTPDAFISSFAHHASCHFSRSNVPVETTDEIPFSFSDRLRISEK
Text: A 96-well ELISA was employed, whereby His-tagged full-length BCL10 protein was immobilized in wells and exposed to GST-tagged recombinant human full-length MALT1 protein in solution, followed by detection with anti-MALT1 antibody. Details are provided in Supplemental Methods.
Plasmids. Plasmids for transfection were verified with Sanger Sequencing. Unless otherwise indicated, plasmids were made by subcloning cDNA fragments from constructs described in previous publications, as noted, and/or site directed mutagenesis. Plasmids in the pcDNA3 or pcDNA3.1 backbone include HA-MALT1(isoform B) (2), HA-MALT1(DD+Ig1-2) (aa 1- […]
MALT1(Ig1-2) V189R, HA-MALT1(Ig1-2) W203_Q205delinsAAA (Vector Builder), HA-MALT1(Ig1-2) H257_Q259delinsAAA (Vector Builder), HA-MALT1(Ig1-2) […]
ELISA-based protein-protein interaction assay. […] The plate was read at 450 nm using a spectrophotometer (Molecular Devices SpectraMax i3). […]
(§1) Cytokine ELISAs. Cytokines in cell culture supernatants were measured 20-24h after treatment with 0, 0.01, 0.03, 0.1, 0.3, 1, or 3 µM of compounds using the following ELISA kits according to the manufacturer’s instructions: Human IL-2 ELISA (BioLegend Cat# 431804), Human IL-6 ELISA (BioLegend Cat# 430504), and Human IL-10 ELISA (BioLegend Cat# 430604). […]
Mouse T-Activator CD3/C28. Supernatant was collected at 24 hours and mouse IL-2 levels were analyzed via ELISA (R&D Systems, Cat# DY402-05).

OCI-Ly3 cells = experiment: IL-6 and IL-10 secretion, cytokine ELISA; type: cell-based, human; conditions: for IL-6 and IL-10 secretion: OCI-Ly3, result in words; for IL-6 protein (normalized) / IL-10 protein (normalized): OCI-Ly3 cells, individual replicates n=3
Description: as §1

TMD8 cells = experiment: IL-6 and IL-10 secretion, cytokine ELISA; type: cell-based, human; conditions: for IL-6 and IL-10 secretion: TMD8, result in words
Description: as §1

Row | Structure (SMILES) | IC50 (BCL10-MALT1 interaction) | IL-6 and IL-10 secretion (OCI-Ly3 cells) | IL-6 protein (normalized) (OCI-Ly3 cells; dose 0.01 µM) | IL-10 protein (normalized) (OCI-Ly3 cells; dose 0.01 µM) | IL-6 protein (normalized) (OCI-Ly3 cells; dose 0.03 µM) | IL-10 protein (normalized) (OCI-Ly3 cells; dose 0.03 µM) | IL-6 protein (normalized) (OCI-Ly3 cells; dose 0.1 µM) | IL-10 protein (normalized) (OCI-Ly3 cells; dose 0.1 µM) | IL-6 protein (normalized) (OCI-Ly3 cells; dose 0.3 µM) | IL-10 protein (normalized) (OCI-Ly3 cells; dose 0.3 µM) | IL-6 protein (normalized) (OCI-Ly3 cells; dose 1 µM) | IL-10 protein (normalized) (OCI-Ly3 cells; dose 1 µM) | IL-6 protein (normalized) (OCI-Ly3 cells; dose 3 µM) | IL-10 protein (normalized) (OCI-Ly3 cells; dose 3 µM) | IL-6 protein (normalized) (TMD8 cells; TMD8, Dose (µM) 0.01) | IL-10 protein (normalized) (TMD8 cells; TMD8, Dose (µM) 0.01) | IL-6 protein (normalized) (TMD8 cells; TMD8, Dose (µM) 0.03) | IL-10 protein (normalized) (TMD8 cells; TMD8, Dose (µM) 0.03) | IL-6 protein (normalized) (TMD8 cells; TMD8, Dose (µM) 0.1) | IL-10 protein (normalized) (TMD8 cells; TMD8, Dose (µM) 0.1) | further results
1 | COc1ccc(CNS(=O)(=O)c2ccc(Cc3ccc(S(=O)(=O)NCc4ccc(OC)cc4)cc3)cc2)cc1 [M1i-124d1] | 34 µM | dose-dependent reduction of IL-6 and IL-10 secretion | 99.5607 and 97.9207 and 112.031 | 79.7769 and 92.2916 and 96.3976 | 98.1802 and 88.2708 and 79.406 | 92.2982 and 70.1649 and 75.2443 | 82.137 and 88.0559 and 90.8694 | 78.4383 and 79.1463 and 60.8949 | 78.0338 and 77.6618 and 76.9556 | 68.3626 and 76.063 and 76.9269 | 82.5608 and 76.3464 and 79.062 | 58.0215 and 44.447 and 56.2881 | 67.8445 and 70.7121 and 79.6228 | 43.78 and 51.6743 and 38.3491 | 93.5197 and 93.7514 and 94.5387 | 69.769 and 89.382 and 96.8917 | 91.3047 and 88.3022 and 85.704 | 62.2564 and 54.1514 and 73.6549 | 77.5452 and 70.6916 and 62.4629 | 60.4815 and 45.5606 and 38.3417 | IL-6 protein (normalized) (TMD8 cells; TMD8, Dose (µM) 0.3): 55.6968 and 55.4486 and 52.1775; IL-10 protein (normalized) (TMD8 cells; TMD8, Dose (µM) 0.3): 40.1613 and 36.3491 and 28.9939; IL-6 protein (normalized) (TMD8 cells; TMD8, Dose (µM) 1): 45.5895 and 45.5473 and 39.027; IL-10 protein (normalized) (TMD8 cells; TMD8, Dose (µM) 1): 29.9544 and 27.9974 and 29.4587; IL-6 protein (normalized) (TMD8 cells; TMD8, Dose (µM) 3): 41.6763 and 36.3341 and 29.5994; IL-10 protein (normalized) (TMD8 cells; TMD8, Dose (µM) 3): 27.5683 and 24.6599 and 35.0793; IL-6 and IL-10 secretion (TMD8 cells): dose-dependent reduction of IL-6 and IL-10 secretion
2 | O=S(=O)(NCc1ccc2c(c1)OCO2)c1ccc(Cc2ccc(S(=O)(=O)NCc3ccc4c(c3)OCO4)cc2)cc1 [M1i-124] | 16 µM | dose-dependent reduction of IL-6 and IL-10 secretion | 107.046 and 97.7137 and 87.0295 | 103.16 and 104.534 and 97.5052 | 96.5093 and 109.876 and 83.6147 | 91.281 and 93.6459 and 78.8249 | 75.4106 and 89.2481 and 95.3244 | 87.8156 and 90.4046 and 87.8267 | 61.7285 and 64.3367 and 64.4209 | 53.7308 and 68.0081 and 65.3126 | 45.5755 and 29.5412 and 43.2472 | 42.8574 and 34.5822 and 37.4365 | 32.8587 and 36.4245 and 37.9702 | 27.1129 and 25.9246 and 27.6249 | 95.9364 and 102.213 and 93.8323 | 92.0215 and 104.795 and 93.5401 | 87.0698 and 93.9663 and 88.6054 | 92.6437 and 90.5031 and 81.0478 | 69.9434 and 74.7992 and 78.3531 | 68.4368 and 67.4137 and 68.4567 | IC50 (TMD8 cells; Homo sapiens, cell-based assays measuring functional MALT1 inhibition, span over cytokines and cell lines (TMD8, OCI-Ly3; Supplemental Table 1)): 0.5 to 1.3 µM; IL-6 protein (normalized) (TMD8 cells; TMD8, Dose (µM) 0.3): 69.7251 and 64.7937 and 50.8437; IL-10 protein (normalized) (TMD8 cells; TMD8, Dose (µM) 0.3): 56.1427 and 56.6527 and 44.4473; IL-6 protein (normalized) (TMD8 cells; TMD8, Dose (µM) 1): 36.3116 and 40.2609 and 34.3135; IL-10 protein (normalized) (TMD8 cells; TMD8, Dose (µM) 1): 37.7839 and 38.0405 and 34.7537; IL-6 protein (normalized) (TMD8 cells; TMD8, Dose (µM) 3): 26.8371 and 27.7392 and 25.9151; IL-10 protein (normalized) (TMD8 cells; TMD8, Dose (µM) 3): 23.1611 and 23.3192 and 20.6767; IL-6 and IL-10 secretion (TMD8 cells): dose-dependent reduction of IL-6 and IL-10 secretion
